Values quoted from earlier work as cited in patent US11796546B2, “Methods for quantifying drug concentration in a prodrug composition” (GENZYME CORPORATION, priority 2019, dated 2023).

Assays:
[1] = system: type 2 diabetes mellitus patients

In the case of “HdSQGTFTSDLSKQK(γE-palmitate)ESKAAQDFIEWLKAGGPSSGAPPPS-NH2 [SAR425899]”, the “glycemic control and weight loss” value [1] is listed as “facilitate glycemic control and weight loss” and the in vivo clearance is listed as “rapid in vivo clearance”.
